# Experimental data: patent publication US20240180900A1, “COMPOUNDS AND METHODS FOR THE TARGETED DEGRADATION OF ANDROGEN RECEPTOR” (Arvinas Operations, Inc., priority 2022, published 2024)
# Entries after “also recorded” stand apart in the source; their conditions may differ.
# Assay: Phase 1/2 study in mCRPC participants: safety
# [1] = all causality SAEs, Phases 1 and 2 combined, N = 47
# [2] = all-causality TEAEs, Phase 1, N = 34
smiles,measurement,setting,value
"COc1cc(O[C@H]2C(C)(C)[C@H](NC(=O)c3ccc(N4CCC(CN5CCN(c6ccc(C(=O)N[C@H]7CCC(=O)NC7=O)c(F)c6)CC5)CC4)cc3)C2(C)C)ccc1C#N [Compound A, 4-(4-((1-(4-(((1R,3R)-3-(4-cyano-3-methoxyphenoxy)-2,2,4,4-tetramethylcyclobutyl)carbamoyl)phenyl)piperidin-4-yl)methyl)piperazin-1-yl)-N—((S)-2,6-dioxopiperidin-3-yl)-2-fluorobenzamide]",DLTs,"Part A (Phase 1 dose escalation), 20 mg to 500 mg QD",No DLTs have been reported
same,Grade 4 or 5 TRAEs,Phase 1,no Grade 4 or 5 TRAEs
same,TRAE of Grade 3 aspartate aminotransferase increased,Phase 1,1
same,TRAE of Grade 3 fatigue,Phase 1,1
same,participants who discontinued study treatment due to a TEAE,Phase 1,No participant
same,treatment discontinuation due to TRAE,Phase 1,no treatment discontinuation
same,participants with treatment-emergent SAEs regardless of attribution,"Phase 1, of 34",11 participants
same,tolerability,"Phase 1/2, post-NHA mCRPC patients, 40 mg to 500 mg once daily",well-tolerated; also recorded: well tolerated
same,treatment-related SAEs,Phase 1 and Phase 2,No treatment-related SAEs were reported
same,grade of the majority of TRAEs,Phase 1 dose escalation and Phase 2 interim data,Grade 1/2
same,SAEs,Phase 2,no SAEs were reported
same,TRAE abdominal pain,Phase 2,2 (15.4%) participants
same,TRAE alopecia,Phase 2,2 (15.4%) participants
same,TRAE dysgeusia,Phase 2,2 (15.4%) participants
same,TRAE nausea,Phase 2,2 (15.4%) participants
same,TRAE of Grade 3 abdominal pain,Phase 2,1
same,dose reductions due to a TRAE,Phase 2,two
same,treatment discontinuation due to a TRAE,Phase 2,one
same,participants who discontinued treatment due to a TEAE,"Phase 2, Grade 3 abdominal pain, related",One
same,participants with TEAEs regardless of attribution,"Phases 1 and 2, of 47",44 participants
same,participants with TEAEs at least potentially related to Compound A,"Phases 1 and 2 combined, of 47",25 participants
same,Blood and lymphatic system disorders: Any Grade,[1],1 participants
same,Blood and lymphatic system disorders: Grade 3,[1],0 participants
same,Blood and lymphatic system disorders: Grade 4,[1],1 (2.1) participants
same,Blood and lymphatic system disorders: Grade 5,[1],0 participants
same,Brain stem stroke: Any Grade,[1],1 participants
same,Brain stem stroke: Grade 3,[1],0 participants
same,Brain stem stroke: Grade 4,[1],0 participants
same,Cystitis noninfective: Any Grade,[1],1 participants
same,Cystitis noninfective: Grade 3,[1],1 participants
same,Cystitis noninfective: Grade 4,[1],0 participants
same,Cystitis noninfective: Grade 5,[1],0 participants
same,Diarrhoea: Any Grade,[1],1 participants
same,Diarrhoea: Grade 3,[1],1 participants
same,Diarrhoea: Grade 4,[1],0 participants
same,Diarrhoea: Grade 5,[1],0 participants
same,Dyspnoea: Any Grade,[1],1 participants
same,Dyspnoea: Grade 3,[1],1 participants
same,Dyspnoea: Grade 4,[1],0 participants
same,Dyspnoea: Grade 5,[1],0 participants
same,Febrile neutropenia: Any Grade,[1],1 participants
same,Febrile neutropenia: Grade 3,[1],0 participants
same,Febrile neutropenia: Grade 5,[1],0 participants
same,Gastrointestinal disorders: Any Grade,[1],1 participants
same,Gastrointestinal disorders: Grade 3,[1],1 participants
same,Gastrointestinal disorders: Grade 4,[1],0 participants
same,Gastrointestinal disorders: Grade 5,[1],0 participants
same,Grade 2 lethargy (SAE),[1],one
same,Haematuria: Any Grade,[1],1 participants
same,Haematuria: Grade 3,[1],1 participants
same,Haematuria: Grade 4,[1],0 participants
same,Haematuria: Grade 5,[1],0 participants
same,Hypoxia: Any Grade,[1],1 participants
same,Hypoxia: Grade 3,[1],1 participants
same,Hypoxia: Grade 4,[1],0 participants
same,Hypoxia: Grade 5,[1],0 participants
same,Infections and infestations: Any Grade,[1],2 participants
same,Infections and infestations: Grade 3,[1],2 participants
same,Infections and infestations: Grade 4,[1],0 participants
same,Infections and infestations: Grade 5,[1],0 participants
same,Lethargy: Any Grade,[1],1 participants
same,Lethargy: Grade 3,[1],0 participants
same,Lethargy: Grade 4,[1],0 participants
same,Lethargy: Grade 5,[1],0 participants
same,Nervous system disorders: Any Grade,[1],4 participants
same,Nervous system disorders: Grade 3,[1],2 participants
same,Nervous system disorders: Grade 4,[1],0 participants
same,Nervous system disorders: Grade 5,[1],1 (2.1) participants
same,Participants with any serious TEAEs: Any Grade,[1],11 participants
same,Participants with any serious TEAEs: Grade 3,[1],8 participants
same,Participants with any serious TEAEs: Grade 4,[1],1 (2.1) participants
same,Participants with any serious TEAEs: Grade 5,[1],1 (2.1) participants
same,Pneumonia: Any Grade,[1],1 participants
same,Pneumonia: Grade 3,[1],1 participants
same,Pneumonia: Grade 4,[1],0 participants
same,Pneumonia: Grade 5,[1],0 participants
same,Renal and urinary disorders: Any Grade,[1],3 participants
same,Renal and urinary disorders: Grade 3,[1],3 participants
same,Renal and urinary disorders: Grade 4,[1],0 participants
same,Renal and urinary disorders: Grade 5,[1],0 participants
same,"Respiratory, thoracic and mediastinal disorders: Any Grade",[1],2 participants
same,"Respiratory, thoracic and mediastinal disorders: Grade 3",[1],2 participants
same,"Respiratory, thoracic and mediastinal disorders: Grade 4",[1],0 participants
same,"Respiratory, thoracic and mediastinal disorders: Grade 5",[1],0 participants
same,Soft tissue infection: Any Grade,[1],1 participants
same,Soft tissue infection: Grade 3,[1],1 participants
same,Soft tissue infection: Grade 4,[1],0 participants
same,Soft tissue infection: Grade 5,[1],0 participants
same,Spinal cord compression: Any Grade,[1],1 participants
same,Spinal cord compression: Grade 3,[1],1 participants
same,Spinal cord compression: Grade 4,[1],0 participants
same,Spinal cord compression: Grade 5,[1],0 participants
same,Tremor: Any Grade,[1],1 participants
same,Tremor: Grade 3,[1],1 participants
same,Tremor: Grade 4,[1],0 participants
same,Tremor: Grade 5,[1],0 participants
same,Urinary tract obstruction: Any Grade,[1],1 participants
same,Urinary tract obstruction: Grade 3,[1],1 participants
same,Urinary tract obstruction: Grade 4,[1],0 participants
same,Urinary tract obstruction: Grade 5,[1],0 participants
same,Alopecia: Any Grade,[2],4 participants
same,Alopecia: Grade 3,[2],0 participants
same,Alopecia: Grade 4,[2],0 participants
same,Alopecia: Grade 5,[2],0 participants
same,Anaemia: Any Grade,[2],6 participants
same,Anaemia: Grade 3,[2],0 participants
same,Anaemia: Grade 4,[2],0 participants
same,Anaemia: Grade 5,[2],0 participants
same,Aspartate aminotransferase increased: Any Grade,[2],5 participants
same,Aspartate aminotransferase increased: Grade 3,[2],1 participants
same,Aspartate aminotransferase increased: Grade 4,[2],0 participants
same,Aspartate aminotransferase increased: Grade 5,[2],0 participants
same,Blood alkaline phosphatase increased: Any Grade,[2],8 participants
same,Blood alkaline phosphatase increased: Grade 3,[2],0 participants
same,Blood alkaline phosphatase increased: Grade 4,[2],0 participants
same,Blood alkaline phosphatase increased: Grade 5,[2],0 participants
same,Blood and lymphatic system disorders: Any Grade,[2],7 participants
same,Blood and lymphatic system disorders: Grade 3,[2],0 participants
same,Blood and lymphatic system disorders: Grade 4,[2],1 participants
same,Blood and lymphatic system disorders: Grade 5,[2],0 participants
same,Blood creatinine increased: Any Grade,[2],7 participants
same,Blood creatinine increased: Grade 3,[2],0 participants
same,Blood creatinine increased: Grade 4,[2],0 participants
same,Blood creatinine increased: Grade 5,[2],0 participants
same,Constipation: Any Grade,[2],4 participants
same,Constipation: Grade 3,[2],0 participants
same,Constipation: Grade 4,[2],0 participants
same,Constipation: Grade 5,[2],0 participants
same,Cough: Any Grade,[2],4 participants
same,Cough: Grade 3,[2],0 participants
same,Cough: Grade 4,[2],0 participants
same,Cough: Grade 5,[2],0 participants
same,Decreased appetite: Any Grade,[2],5 participants
same,Decreased appetite: Grade 3,[2],0 participants
same,Decreased appetite: Grade 4,[2],0 participants
same,Decreased appetite: Grade 5,[2],0 participants
same,Diarrhoea: Any Grade,[2],7 participants
same,Diarrhoea: Grade 3,[2],2 participants
same,Diarrhoea: Grade 4,[2],0 participants
same,Diarrhoea: Grade 5,[2],0 participants
same,Dyspnoea: Any Grade,[2],4 participants
same,Dyspnoea: Grade 3,[2],1 participants
same,Dyspnoea: Grade 4,[2],0 participants
same,Dyspnoea: Grade 5,[2],0 participants
same,Fatigue: Any Grade,[2],12 participants
same,Fatigue: Grade 3,[2],1 participants
same,Fatigue: Grade 4,[2],0 participants
